Measured values taken from ChEMBL document CHEMBL4396928, “Discovery of Selective, Orally Bioavailable Pyrazolopyridine Inhibitors of Protein Kinase Cθ (PKCθ) That Ameliorate Symptoms of Experimental Autoimmune Encephalomyelitis” (ACS Med Chem Lett, 2019).

Experiments:
[1] = biological target: Protein kinase C theta type (Homo sapiens, UniProt Q04759); assay: Inhibition of human recombinant full length His tagged PKC theta expressed in baculovirus using ERMRPRKRQGSVRRRV peptide as substrate incubated for 60 mins in presence of [33P] gammaATP by microbeta liquid scintillation counter
[2] = organism: Homo sapiens; assay: Selectivity ratio Ki for recombinant full length PKC delta (unknown origin) to Ki for human recombinant full length His-tagged PKC theta
[3] = organism: Homo sapiens; assay: Selectivity ratio Ki for recombinant full length PKC alpha (unknown origin) to Ki for human recombinant full length His-tagged PKC theta
[4] = system: PBMC; assay: Inhibition of IL-2 secretion from human PBMC cells stimulated with anti-CD3/CD28 measured after 24 hrs by bead-based FLISA; assay type: functional, cell-based
[5] = biological target: Voltage-gated inwardly rectifying potassium channel KCNH2 (Homo sapiens, UniProt Q12809); assay: Inhibition of human ERG
[6] = biological target: Protein kinase C alpha type (Homo sapiens, UniProt P17252); assay: Inhibition of recombinant full length PKC alpha (unknown origin) using RRRRRKGSFKRKA peptide as substrate measured after 15 mins in presence of ATP by spectrophotometric analysis
[7] = biological target: Protein kinase C delta type (Homo sapiens, UniProt Q05655); assay: Inhibition of recombinant full length PKC delta (unknown origin) using ERMRPRKR- QGSVRRRV peptide as substrate measured after 15 mins in presence of ATP by spectrophotometric analysis
[8] = biological target: cAMP-dependent protein kinase catalytic subunit alpha (Homo sapiens, UniProt P17612); assay: Inhibition of protein kinase A (unknown origin) using Kemptide (LRRASLG) as substrate incubated for 15 mins in presence of ATP by spectrophotometric analysis
[9] = biological target: T1, Receptor-type tyrosine-protein kinase FLT3 (Homo sapiens, UniProt P36888); assay: Inhibition of FLT3 (unknown origin) using polyE4Y peptide as substrate incubated for 60 mins in presence of [33P] gammaATP by microbeta liquid scintillation counter
T1 sequence (P36888 whole entry): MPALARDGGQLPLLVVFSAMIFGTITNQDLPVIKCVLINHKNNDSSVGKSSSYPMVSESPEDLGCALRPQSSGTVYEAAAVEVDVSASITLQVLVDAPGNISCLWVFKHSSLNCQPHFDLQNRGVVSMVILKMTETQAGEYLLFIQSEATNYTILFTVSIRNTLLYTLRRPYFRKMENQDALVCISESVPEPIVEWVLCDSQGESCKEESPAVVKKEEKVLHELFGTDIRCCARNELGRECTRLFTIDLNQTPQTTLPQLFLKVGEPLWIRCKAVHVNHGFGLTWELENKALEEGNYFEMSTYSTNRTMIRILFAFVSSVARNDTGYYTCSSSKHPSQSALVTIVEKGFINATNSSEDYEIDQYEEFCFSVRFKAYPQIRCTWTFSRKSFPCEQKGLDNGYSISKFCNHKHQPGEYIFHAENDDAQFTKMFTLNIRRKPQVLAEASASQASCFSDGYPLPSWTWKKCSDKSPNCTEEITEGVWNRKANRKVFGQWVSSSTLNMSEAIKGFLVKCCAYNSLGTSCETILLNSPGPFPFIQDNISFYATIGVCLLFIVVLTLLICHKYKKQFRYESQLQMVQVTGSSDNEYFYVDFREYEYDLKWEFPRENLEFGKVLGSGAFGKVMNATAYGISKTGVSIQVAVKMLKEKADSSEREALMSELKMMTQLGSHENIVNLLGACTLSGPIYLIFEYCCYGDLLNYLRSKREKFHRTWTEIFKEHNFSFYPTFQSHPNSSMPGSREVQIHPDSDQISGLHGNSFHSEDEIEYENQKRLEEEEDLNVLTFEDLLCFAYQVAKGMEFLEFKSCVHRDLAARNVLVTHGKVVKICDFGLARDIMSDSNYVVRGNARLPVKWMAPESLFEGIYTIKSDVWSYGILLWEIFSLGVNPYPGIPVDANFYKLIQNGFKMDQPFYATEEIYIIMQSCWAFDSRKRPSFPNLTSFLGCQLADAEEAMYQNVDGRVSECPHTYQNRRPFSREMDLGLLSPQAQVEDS

[10] = Stability of compound in human liver microsomes assessed as compound remaining at 30 mins; assay type: ADME, Microsome; settings: read-out: Stability
[11] = Stability of compound in rat liver microsomes assessed as compound remaining at 30 mins; assay type: ADME, Microsome; settings: read-out: Stability
[12] = system: HFL1; assay: Cytotoxicity against human HFL1 cells assessed as growth inhibition measured after 48 hrs by 3H-thymidine incorporation assay; assay type: cell-based
[13] = Lipophilicity, logD of compound; assay type: physicochemical; settings: octanol/water
[14] = Permeability across apical to basolateral side in human Caco2 cells measured at 120 mins by LC-MS/MS analysis; assay type: ADME, cell-based; settings: Caco-2, read-out: permeability
[15] = biological target: Rho-associated protein kinase (Homo sapiens, UniProt O75116+Q13464); assay: Inhibition of ROCK (unknown origin) using Myelin Basic Protein as substrate incubated for 60 mins in presence of [33P] gammaATP by microbeta liquid scintillation counter; assay type: protein assay
[16] = biological target: Tyrosine-protein kinase JAK2 (Homo sapiens, UniProt O60674); assay: Inhibition of JAK2 (unknown origin) using polyE4Y peptide as substrate incubated for 60 mins in presence of [33P] gammaATP by microbeta liquid scintillation counter
[17] = Unbound hepatic clearance in rat hepatocytes assessed per million cells; assay type: ADME, cell-based, Hepatocyte
[18] = Unbound hepatic clearance in human hepatocytes assessed per million cells; assay type: ADME, cell-based, Hepatocyte
[19] = Clearance in iv dosed rat; assay type: ADME, organism-based; settings: in vivo
[20] = Half-life in iv dosed rat; assay type: ADME, organism-based; settings: in vivo
[21] = Volume of distribution at steady state in iv dosed rat; assay type: ADME, organism-based; settings: in vivo, read-out: Vdss
[22] = Efflux ratio of permeability in human Caco2 cells by LC-MS/MS analysis; assay type: ADME, cell-based; settings: Caco-2
[23] = Dissociation constant, pKa of compound; assay type: physicochemical
[24] = biological target: Cytochrome P450 2C9 (Homo sapiens, UniProt P11712); assay: Inhibition of CYP2C9 (unknown origin) at 4 uM; assay type: ADME
[25] = biological target: Cytochrome P450 2D6 (Homo sapiens, UniProt P10635); assay: Inhibition of CYP2D6 (unknown origin) at 8 uM; assay type: ADME
[26] = biological target: Cytochrome P450 3A4 (Homo sapiens, UniProt P08684); assay: Inhibition of CYP3A4 (unknown origin) at 16 uM; assay type: ADME
[27] = biological target: Glycogen synthase kinase-3 beta (Homo sapiens, UniProt P49841); assay: Inhibition of GSK-3beta (unknown origin) using HSSPHQS(PO3H2)EDEEE peptide as substrate measured after 15 mins in presence of ATP by spectrophotometric analysis
[28] = biological target: T2, Tyrosine-protein kinase JAK3 (Homo sapiens, UniProt P52333); assay: Inhibition of JAK3 (unknown origin)
T2 sequence (P52333 whole entry): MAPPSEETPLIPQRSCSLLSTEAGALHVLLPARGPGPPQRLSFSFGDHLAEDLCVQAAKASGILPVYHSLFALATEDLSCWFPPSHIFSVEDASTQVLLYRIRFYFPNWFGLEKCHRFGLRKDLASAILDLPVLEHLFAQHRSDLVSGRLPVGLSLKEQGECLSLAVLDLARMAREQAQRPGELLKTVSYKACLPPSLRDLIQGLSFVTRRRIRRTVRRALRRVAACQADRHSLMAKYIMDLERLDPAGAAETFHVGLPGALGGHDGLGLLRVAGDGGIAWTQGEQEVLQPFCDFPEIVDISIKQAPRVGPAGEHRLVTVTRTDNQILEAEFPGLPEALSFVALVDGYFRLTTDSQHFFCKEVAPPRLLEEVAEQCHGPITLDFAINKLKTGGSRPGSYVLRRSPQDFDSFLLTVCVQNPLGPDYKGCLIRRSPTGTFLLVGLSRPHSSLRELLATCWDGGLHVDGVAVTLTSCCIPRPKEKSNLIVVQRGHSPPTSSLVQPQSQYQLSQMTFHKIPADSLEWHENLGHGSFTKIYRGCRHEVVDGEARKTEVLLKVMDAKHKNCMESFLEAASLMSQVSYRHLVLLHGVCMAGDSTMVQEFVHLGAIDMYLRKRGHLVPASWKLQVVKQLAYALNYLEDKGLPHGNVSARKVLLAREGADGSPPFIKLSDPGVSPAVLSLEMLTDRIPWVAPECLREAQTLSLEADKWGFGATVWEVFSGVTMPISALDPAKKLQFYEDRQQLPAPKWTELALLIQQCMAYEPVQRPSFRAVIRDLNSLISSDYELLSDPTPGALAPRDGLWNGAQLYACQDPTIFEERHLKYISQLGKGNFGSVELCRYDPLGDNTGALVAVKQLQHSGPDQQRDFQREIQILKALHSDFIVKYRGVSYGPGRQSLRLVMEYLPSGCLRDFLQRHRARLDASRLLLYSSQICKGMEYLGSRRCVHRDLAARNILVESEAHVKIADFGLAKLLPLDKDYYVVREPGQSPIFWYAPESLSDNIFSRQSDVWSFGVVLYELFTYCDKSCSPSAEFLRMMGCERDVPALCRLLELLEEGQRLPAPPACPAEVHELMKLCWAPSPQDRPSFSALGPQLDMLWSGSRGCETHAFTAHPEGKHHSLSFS

Sequence of Protein kinase C theta type (Q04759 whole entry): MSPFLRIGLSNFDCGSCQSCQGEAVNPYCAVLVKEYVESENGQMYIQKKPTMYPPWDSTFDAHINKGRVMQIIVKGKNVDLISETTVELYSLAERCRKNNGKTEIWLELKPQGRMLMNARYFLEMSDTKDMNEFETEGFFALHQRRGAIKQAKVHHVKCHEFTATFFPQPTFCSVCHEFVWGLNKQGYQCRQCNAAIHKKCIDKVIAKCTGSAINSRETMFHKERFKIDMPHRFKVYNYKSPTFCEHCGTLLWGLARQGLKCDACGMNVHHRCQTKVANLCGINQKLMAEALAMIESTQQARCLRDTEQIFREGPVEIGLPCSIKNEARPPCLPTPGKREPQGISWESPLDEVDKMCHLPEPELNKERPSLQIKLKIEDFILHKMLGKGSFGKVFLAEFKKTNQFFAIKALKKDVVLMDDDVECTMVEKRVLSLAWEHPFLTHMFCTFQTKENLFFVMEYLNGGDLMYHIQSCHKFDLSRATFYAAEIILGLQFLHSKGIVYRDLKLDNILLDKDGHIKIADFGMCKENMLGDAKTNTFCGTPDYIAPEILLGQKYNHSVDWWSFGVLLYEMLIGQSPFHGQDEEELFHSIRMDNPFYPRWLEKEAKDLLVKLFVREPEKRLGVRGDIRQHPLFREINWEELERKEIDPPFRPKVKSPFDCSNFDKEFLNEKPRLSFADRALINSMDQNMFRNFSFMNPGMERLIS
Sequence of Voltage-gated inwardly rectifying potassium channel KCNH2 (Q12809 whole entry): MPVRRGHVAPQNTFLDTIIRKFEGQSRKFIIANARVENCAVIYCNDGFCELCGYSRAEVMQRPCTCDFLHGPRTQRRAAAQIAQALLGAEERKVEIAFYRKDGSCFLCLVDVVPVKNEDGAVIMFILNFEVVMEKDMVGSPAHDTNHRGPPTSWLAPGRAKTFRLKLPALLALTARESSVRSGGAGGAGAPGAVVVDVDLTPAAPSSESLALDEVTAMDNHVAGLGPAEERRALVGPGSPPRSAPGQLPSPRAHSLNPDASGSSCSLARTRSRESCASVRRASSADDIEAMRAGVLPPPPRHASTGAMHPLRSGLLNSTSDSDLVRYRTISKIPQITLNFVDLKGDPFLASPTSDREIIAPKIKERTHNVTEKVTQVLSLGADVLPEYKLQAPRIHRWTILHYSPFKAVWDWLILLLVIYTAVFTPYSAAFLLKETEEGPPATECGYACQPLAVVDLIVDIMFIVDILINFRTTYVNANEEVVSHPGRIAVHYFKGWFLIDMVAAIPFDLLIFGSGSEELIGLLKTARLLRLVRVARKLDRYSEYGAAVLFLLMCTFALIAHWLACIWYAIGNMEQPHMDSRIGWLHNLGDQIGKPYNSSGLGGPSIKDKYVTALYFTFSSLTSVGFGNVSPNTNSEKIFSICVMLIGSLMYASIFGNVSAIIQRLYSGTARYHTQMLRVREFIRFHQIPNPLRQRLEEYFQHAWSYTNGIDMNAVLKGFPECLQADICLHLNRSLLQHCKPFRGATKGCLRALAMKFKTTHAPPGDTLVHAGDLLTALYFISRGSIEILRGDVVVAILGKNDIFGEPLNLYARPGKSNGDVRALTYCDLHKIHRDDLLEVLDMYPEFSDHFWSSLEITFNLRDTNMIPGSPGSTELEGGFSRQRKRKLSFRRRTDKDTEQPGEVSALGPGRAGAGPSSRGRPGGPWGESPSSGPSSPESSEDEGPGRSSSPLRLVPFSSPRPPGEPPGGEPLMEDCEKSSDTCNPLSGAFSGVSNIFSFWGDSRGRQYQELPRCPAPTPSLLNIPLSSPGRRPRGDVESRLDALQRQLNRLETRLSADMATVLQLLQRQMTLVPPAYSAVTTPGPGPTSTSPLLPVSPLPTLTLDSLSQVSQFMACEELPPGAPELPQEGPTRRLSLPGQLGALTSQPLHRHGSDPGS
Sequence of Tyrosine-protein kinase JAK2 (O60674 whole entry): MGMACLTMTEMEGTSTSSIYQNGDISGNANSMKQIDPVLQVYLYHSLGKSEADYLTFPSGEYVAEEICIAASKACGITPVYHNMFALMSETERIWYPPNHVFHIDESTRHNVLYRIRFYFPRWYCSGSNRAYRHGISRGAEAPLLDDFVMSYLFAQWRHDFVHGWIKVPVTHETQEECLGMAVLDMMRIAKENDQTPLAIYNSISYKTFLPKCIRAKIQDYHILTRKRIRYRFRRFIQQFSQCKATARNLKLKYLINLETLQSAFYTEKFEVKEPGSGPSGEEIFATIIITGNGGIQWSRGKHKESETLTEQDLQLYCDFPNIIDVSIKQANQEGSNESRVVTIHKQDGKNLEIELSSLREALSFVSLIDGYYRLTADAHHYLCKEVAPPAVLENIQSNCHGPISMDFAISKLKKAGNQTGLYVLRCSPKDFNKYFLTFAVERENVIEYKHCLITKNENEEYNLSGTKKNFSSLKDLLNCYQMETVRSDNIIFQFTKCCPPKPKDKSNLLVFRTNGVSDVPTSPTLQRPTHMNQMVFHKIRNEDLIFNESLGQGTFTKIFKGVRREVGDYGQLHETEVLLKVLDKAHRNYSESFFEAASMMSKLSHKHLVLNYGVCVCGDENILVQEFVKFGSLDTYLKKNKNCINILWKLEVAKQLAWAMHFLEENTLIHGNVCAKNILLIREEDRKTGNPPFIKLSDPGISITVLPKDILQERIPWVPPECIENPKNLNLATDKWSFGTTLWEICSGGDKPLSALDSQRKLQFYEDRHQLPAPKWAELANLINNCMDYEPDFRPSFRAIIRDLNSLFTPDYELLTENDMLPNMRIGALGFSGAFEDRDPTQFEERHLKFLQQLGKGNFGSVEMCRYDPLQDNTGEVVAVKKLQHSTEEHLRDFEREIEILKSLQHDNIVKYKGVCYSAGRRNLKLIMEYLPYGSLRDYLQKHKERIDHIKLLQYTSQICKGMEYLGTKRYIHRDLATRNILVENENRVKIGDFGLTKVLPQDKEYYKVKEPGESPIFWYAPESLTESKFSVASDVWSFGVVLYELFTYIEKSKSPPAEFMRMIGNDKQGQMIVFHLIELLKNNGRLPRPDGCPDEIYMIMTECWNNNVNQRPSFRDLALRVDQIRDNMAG
Sequence of Protein kinase C delta type (Q05655 whole entry): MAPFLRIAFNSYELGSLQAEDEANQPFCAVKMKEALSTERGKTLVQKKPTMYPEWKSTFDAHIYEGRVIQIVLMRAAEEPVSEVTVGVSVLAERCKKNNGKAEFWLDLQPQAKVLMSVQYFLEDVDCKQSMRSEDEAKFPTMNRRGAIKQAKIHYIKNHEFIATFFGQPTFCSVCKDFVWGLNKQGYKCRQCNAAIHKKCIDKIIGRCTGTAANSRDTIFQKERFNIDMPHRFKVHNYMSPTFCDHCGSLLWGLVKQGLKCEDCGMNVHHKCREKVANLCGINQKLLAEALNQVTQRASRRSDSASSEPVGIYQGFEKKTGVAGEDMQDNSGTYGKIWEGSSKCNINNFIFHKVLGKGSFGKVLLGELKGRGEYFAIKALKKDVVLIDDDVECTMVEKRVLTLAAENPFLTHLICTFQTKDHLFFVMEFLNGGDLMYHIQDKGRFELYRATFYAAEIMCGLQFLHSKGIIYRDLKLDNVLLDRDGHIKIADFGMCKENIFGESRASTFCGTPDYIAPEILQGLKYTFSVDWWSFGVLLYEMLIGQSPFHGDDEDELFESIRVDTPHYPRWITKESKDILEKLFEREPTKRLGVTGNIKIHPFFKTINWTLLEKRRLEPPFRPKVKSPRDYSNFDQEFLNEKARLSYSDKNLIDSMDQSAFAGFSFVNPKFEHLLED
Sequence of Cytochrome P450 3A4 (P08684 whole entry): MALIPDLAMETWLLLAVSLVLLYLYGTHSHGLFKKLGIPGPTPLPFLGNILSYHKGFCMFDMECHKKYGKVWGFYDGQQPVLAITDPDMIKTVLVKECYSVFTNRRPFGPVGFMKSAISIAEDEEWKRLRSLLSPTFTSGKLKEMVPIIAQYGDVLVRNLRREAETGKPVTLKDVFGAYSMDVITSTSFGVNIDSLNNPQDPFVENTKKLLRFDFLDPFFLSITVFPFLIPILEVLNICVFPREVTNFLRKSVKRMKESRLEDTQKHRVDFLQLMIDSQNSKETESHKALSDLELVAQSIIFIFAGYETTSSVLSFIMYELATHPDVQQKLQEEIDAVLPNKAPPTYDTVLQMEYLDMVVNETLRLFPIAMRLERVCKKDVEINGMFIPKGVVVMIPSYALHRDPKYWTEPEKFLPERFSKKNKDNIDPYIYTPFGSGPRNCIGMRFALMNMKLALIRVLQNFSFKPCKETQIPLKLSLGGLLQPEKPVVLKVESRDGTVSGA

| Structure (SMILES) | Ki [1] | Ratio Ki [2] | Ratio Ki [3] | IC50 [4] | Ki [7] | also measured |
| --- | --- | --- | --- | --- | --- | --- |
| NCC1(c2cccc(-c3ccnc4[nH]ncc34)c2)CCOCC1 | 9 nM | 111 | 93 | 550 nM |  |  |
| NCC1(c2cccc(-c3ccnc4[nH]nc(C(F)(F)F)c34)c2)CCOCC1 | 9 nM |  |  | 130 nM | 184 nM | IC50 [5]: > 10 µM; Ki [6]: 468 nM; Ki [8]: 30 nM; Ki [9]: 46 nM; remaining at 0.5 h [10]: 96%; remaining at 0.5 h [11]: 65%; IC50 [12]: 3300 nM |
| CCC(C)(CN)c1cccc(-c2ccnc3[nH]nc(Cl)c23)c1 (configuration not stated) | 0.3 nM | 22 |  | 20 nM |  |  |
| CC(C)(C#N)c1cccc(-c2ccnc3[nH]ncc23)n1 | 14 nM |  |  |  | 240 nM | logD [13]: 2.9; Papp A→B at 2 h [14]: 20.1 ×10⁻⁶ cm/s; Ki [6]: 465 nM; Ki [15]: 210 nM; Ki [16]: 86 nM; CL free [17]: 24 µL/min; CL free [18]: 33 µL/min; clearance [19]: 22 mL/min/kg; half-life [20]: 150 min; Vd [21]: 1.22 L/kg; efflux ratio [22]: 0.95 |
| CC(C)(C#N)c1cccc(-c2ccnc3[nH]ncc23)c1 | 28 nM |  |  |  | 584 nM | Papp A→B at 2 h [14]: 36 ×10⁻⁶ cm/s; Ki [15]: 560 nM; Ki [16]: 270 nM; CL free [17]: 58 µL/min; CL free [18]: 172 µL/min; clearance [19]: 12 mL/min/kg; half-life [20]: 276 min; Vd [21]: 0.94 L/kg; efflux ratio [22]: 0.7 |
| CCc1cc(-c2ccnc3[nH]ncc23)cc(C(C)(CC)CN)c1 (configuration not stated) | 14 nM | 39 |  | 250 nM |  |  |
| NCC1(c2cccc(-c3ccnc4[nH]ncc34)c2)CCC1 | 17 nM | 18 | 41 | 300 nM |  |  |
| CCC(C)(CN)c1cc(C)cc(-c2ccnc3[nH]ncc23)c1 (configuration not stated) | 5 nM | 24 |  | 260 nM |  |  |
| NCC1(c2cccc(-c3ccnc4[nH]nc(C(F)(F)F)c34)c2)CCC1 | 2 nM |  |  | 90 nM | 60 nM | IC50 [5]: 3 µM; Ki [6]: 57 nM; remaining at 0.5 h [10]: 81%; remaining at 0.5 h [11]: 88%; IC50 [12]: 1900 nM; pKa [23]: 8.8 |
| CCC(C)(CN)c1cccc(-c2ccnc3[nH]nc(C)c23)c1 (configuration not stated) | < 1 nM | > 16 |  | 100 nM |  |  |
| NCC1(c2cccc(-c3ccnc4[nH]ncc34)c2)CCCCC1 | 30 nM | 8 | 18 | 580 nM |  |  |
| NCC1(c2cccc(-c3ccnc4[nH]ncc34)c2)CCCC1 | 22 nM | 18 | 28 | 350 nM |  |  |
| Cc1cc(-c2ccnc3[nH]nc(C(F)(F)F)c23)cc(C2(CN)CCC2)c1 | 3 nM |  |  | 60 nM | 135 nM | logD [13]: 2.9; inhibition (INH) [24]: Active; IC50 [5]: 0.7 µM; Ki [6]: 60 nM; inhibition (INH) [25]: Active; remaining at 0.5 h [10]: 81%; remaining at 0.5 h [11]: 56%; IC50 [12]: 650 nM; inhibition (INH) [26]: Active; pKa [23]: 8.8 |
| CC(C)(CN)c1cccc(-c2ccnc3[nH]ncc23)c1 | 12 nM | 16 | 50 | 330 nM |  |  |
| CCC(C)(CN)c1cccc(-c2ccnc3[nH]nc(C(F)(F)F)c23)c1 (configuration not stated) | 0.4 nM | 25 |  | 10 nM |  | clearance [19]: 45 mL/min/kg; half-life [20]: 108 min; Vd [21]: 2.7 L/kg |
| CCC(C)(CN)c1cccc(-c2ccnc3[nH]ncc23)c1 (configuration not stated) | 3 nM | 13 to 24 | 37 | 170 nM |  |  |
| C#CCC(C)(CN)c1cccc(-c2ccnc3[nH]ncc23)c1 (configuration not stated) | 0.2 nM | 36 | 149 | 20 nM |  |  |
| CC(C)(C#N)c1cccc(-c2ccnc3[nH]ccc23)n1 | 3 nM |  |  |  | 12 nM | logD [13]: 3.4; Ki [6]: 110 nM; Ki [8]: 110 nM; Ki [27]: 210 nM; Ki [15]: 6 nM; Ki [28]: 3 nM; Ki [9]: 100 nM; Ki [16]: 13 nM; CL free [17]: 156 µL/min; CL free [18]: 24 µL/min; clearance [19]: 42 mL/min/kg; half-life [20]: 18 min; Vd [21]: 0.99 L/kg |
| CCCc1cc(-c2ccnc3[nH]ncc23)cc(C(C)(CC)CN)c1 (configuration not stated) | 32 nM | 39 |  | 200 nM |  |  |
| CCC(C)(C#N)c1cccc(-c2ccnc3[nH]ncc23)c1 (configuration not stated) | 72 nM |  |  | 2700 nM |  |  |
